Patent EP0442663A1, “Improvements in chemical compounds” (priority 1990, dated 1991)
Values joined by “and” are separate entries in the source; they are usually repeats but may differ in a detail not shown here. Identical values can stand only once.

What was measured:
[1] = in vivo; cited from earlier work
HIV = conditions: reported in Chemical and Engineering News, December 1986; cited from earlier work
HIV-2 (LAV-2 ROD) = assay: MTT method anti-HIV screen in MT-4 cells, HIV-2 challenge; assay type: cell-based; conditions: antiviral activity, MT-4 cells challenged with HIV-2 (LAV-2 ROD) at 100 CCID50, 5 days
Protocol: (§1) The compounds of the invention were tested in a screen by the MTT method (J.Virol. Methods […]: 309-321 [1988]). MT-4 cells (2.5 x 10⁴ / well) were challenged with HIV-1 (HTLV-IIIB) or HIV-2 (LAV-2 ROD) at a concentration of 100 CCID₅₀ and incubated in the presence of various concentrations of the test compounds, which were added immediately after challenge with the virus. After 5 days culture at 37°C in a CO₂ incubator, the number of viable cells was assessed by the MTT (tetrazolium) method. Antiviral activity and cytotoxicity of the compounds are expressed in the table below as ED₅₀ (ug/ml) and CD₅₀ (ug/ml), respectively. The potential therapeutic usefulness was assessed by calculating a Selectivity Index (SI) corresponding to the ratio of CD₅₀ to ED₅₀. A control test was performed using the known anti-HIV treatment AZT, and a comparison compound HPA-23 was also run through the screen as detailed below. In the table below, the compounds screened were […]

HIV-1 (HTLV-IIIB) = assay: microbe, parasite or virus in culture; assay type: cell-based; conditions: for ED50: antiviral activity, MT-4 cells challenged with HIV-1 (HTLV-IIIB) at 100 CCID50, 5 days
Protocol: as §1

MT-4 cells = assay: Cytotoxicity by MTT method; assay type: cell-based; conditions: 5 days
Protocol: as §1

herpes virus = conditions: from JP 64-38,022; cited from earlier work
[2] = Cytotoxicity by MTT method; assay type: cell-based; conditions: human, MT-4 cells, 5 days, read-out: CD50
Protocol: as §1

[3] = value printed in the HIV-1 line
[4] = value printed in the HIV-2 line
[5] = value printed in the HIV-1 line, 7200 min
[6] = value printed in the HIV-2 line, 7200 min

Row | Compound | ED50 (HIV-2 (LAV-2 ROD)) | ED50 (HIV-1 (HTLV-IIIB)) | CD50 (MT-4 cells; [3]) | CD50 (MT-4 cells; [4]) | also measured
1 | silicotungstate acid, H₄SiW₁₂O₄₀ | – | – | – | – | toxicity in higher animals [1]: abandoned because of its toxicity in higher animals; activity against HIV (HIV): has activity against HIV
2 | K10[P2W18Zn4(H2O)2O68] [B] | 18.03 µg/mL | 0.71 µg/mL | 466.3 µg/mL | 441.9 µg/mL | –
3 | K9Li[P2W17O62] [E] | 7.28 µg/mL | 2.92 µg/mL | 502.9 µg/mL | 429.7 µg/mL | –
4 | K12[H2P2W12O48] [A] | 0.153 µg/mL | 0.089 µg/mL | 721.0 µg/mL | 675.9 µg/mL | –
5 | Na12[P4W14O58] [F] | 13.26 µg/mL | 4.82 µg/mL | 655.8 µg/mL | 682.8 µg/mL | –
6 | (NH₄)₁₂[H₂P₂W₁₂O₄₈].16H₂O [Example 7] | – | – | – | – | CD50 (MT-4 cells; [5]): >500.0 µg/mL and 304.0 µg/mL; CD50 (MT-4 cells; [6]): 346.0 µg/mL and 286.0 µg/mL
7 | (NH₄)₁₇H[NaSb₉W₂₁O₈₆] [HPA 23, reference compound] | >4 µg/mL | 2.8 µg/mL | 7.4 µg/mL | 2.4 µg/mL | –
8 | Reduced form of K₆[P₂W₁₂Mo₆O₆₂] [Example 12] | – | – | – | – | ED50 (HIV-2 (LAV-2 ROD); 7200 min): 1.8 µg/mL and 1.4 µg/mL; ED50 (HIV-1 (HTLV-IIIB); 7200 min): 4.1 µg/mL and 5.8 µg/mL; CD50 (MT-4 cells; [5]): 234.0 µg/mL and 300.0 µg/mL; CD50 (MT-4 cells; [6]): 315.0 µg/mL and 306.0 µg/mL
9 | K₅BW₁₂O₄₀ | – | – | – | – | activity against herpes virus (herpes virus): have activity against herpes virus
10 | Na7[PrW10O35] [C] | 2.70 µg/mL | 1.86 µg/mL | 761.8 µg/mL | 221.7 µg/mL | –
11 | K₇PW₁₀Ti₂O₄₀ | – | – | – | – | activity against herpes virus (herpes virus): have activity against herpes virus
12 | K10[P2W18Co4(H2O)2O68] | 12.26 µg/mL | 1.47 µg/mL | 84.8 µg/mL | 81.6 µg/mL | –
13 | Cc1cn([C@H]2C[C@H](N=[N+]=[N-])[C@@H](CO)O2)c(=O)[nH]c1=O [AZT, azidothymidione, reference compound] | – | – | – | – | EC50 (HIV-1 (HTLV-IIIB); Human immunodeficiency virus 1, IIIB, MT4, 120 h, read-out: ED50): < 0.008 µg/mL; SI (HIV-1 (HTLV-IIIB); Selectivity Index, ratio of CD50 to ED50, HIV-1, 7200 min): >125; CC50 at 120 h [2]: > 1 µg/mL
